Test results published in ChEMBL document CHEMBL3352660, “Design, synthesis and pharmacological evaluation of novel polycyclic heteroarene ethers as PDE10A inhibitors: part II” (Bioorg Med Chem Lett, 2014).
Activity calls are given as the source filed them. No cut-off for these calls is given here.

How the values were obtained:
Rattus norvegicus [1] = experiment: Antipsychotic activity in Sprague-Dawley rat conditioned avoidance response model assessed as response failure at 10 mg/kg, po measured after 2 hrs relative to vehicle-treated control; assay type: functional, organism-based; parameters: dose 10 mg/kg
[2] = target: Dual 3',5'-cyclic-AMP and -GMP phosphodiesterase 11A (Homo sapiens) (UniProt Q9HCR9); experiment: Inhibition of human recombinant PDE11A using [3H]-cAMP as substrate at 1 uM after 30 mins by two-step radiometric assay
Rattus norvegicus [3] = experiment: Antipsychotic activity in Sprague-Dawley rat psychosis model assessed as reversal of MK-801-induced stereotypy at 1 mg/kg, po administered 2 hrs prior to MK-801 challenge measured every 5 mins for 1 hr starting 15 mins post MK-801 injection relative to vehicle-treated control; assay type: functional
[4] = target: cGMP-inhibited 3',5'-cyclic phosphodiesterase 3A (Homo sapiens) (UniProt Q14432); experiment: Inhibition of human recombinant PDE3A using cAMP as substrate at 10 uM after 30 mins by HTRF method
Rattus norvegicus [5] = experiment: Antipsychotic activity in Sprague-Dawley rat prepulse inhibition deficit model assessed as reversal of MK-801-induced effect at 1 mg/kg, po administered 110 mins prior to MK-801 challenge relative to vehicle-treated control; assay type: functional; parameters: scale not given: the % may be the effect or the level left
Rattus norvegicus [6] = experiment: Antipsychotic activity in Sprague-Dawley rat conditioned avoidance response model assessed as avoidance of shock at 10 mg/kg, po measured after 2 hrs relative to vehicle-treated control; assay type: functional
[7] = target: T1, cAMP and cAMP-inhibited cGMP 3',5'-cyclic phosphodiesterase 10A (Rattus norvegicus, UniProt Q9QYJ6); experiment: Inhibition of rat recombinant GST-tagged PDE10A using [3H]-cAMP as substrate by scintillation proximity assay
T1 sequence (Q9QYJ6 whole entry): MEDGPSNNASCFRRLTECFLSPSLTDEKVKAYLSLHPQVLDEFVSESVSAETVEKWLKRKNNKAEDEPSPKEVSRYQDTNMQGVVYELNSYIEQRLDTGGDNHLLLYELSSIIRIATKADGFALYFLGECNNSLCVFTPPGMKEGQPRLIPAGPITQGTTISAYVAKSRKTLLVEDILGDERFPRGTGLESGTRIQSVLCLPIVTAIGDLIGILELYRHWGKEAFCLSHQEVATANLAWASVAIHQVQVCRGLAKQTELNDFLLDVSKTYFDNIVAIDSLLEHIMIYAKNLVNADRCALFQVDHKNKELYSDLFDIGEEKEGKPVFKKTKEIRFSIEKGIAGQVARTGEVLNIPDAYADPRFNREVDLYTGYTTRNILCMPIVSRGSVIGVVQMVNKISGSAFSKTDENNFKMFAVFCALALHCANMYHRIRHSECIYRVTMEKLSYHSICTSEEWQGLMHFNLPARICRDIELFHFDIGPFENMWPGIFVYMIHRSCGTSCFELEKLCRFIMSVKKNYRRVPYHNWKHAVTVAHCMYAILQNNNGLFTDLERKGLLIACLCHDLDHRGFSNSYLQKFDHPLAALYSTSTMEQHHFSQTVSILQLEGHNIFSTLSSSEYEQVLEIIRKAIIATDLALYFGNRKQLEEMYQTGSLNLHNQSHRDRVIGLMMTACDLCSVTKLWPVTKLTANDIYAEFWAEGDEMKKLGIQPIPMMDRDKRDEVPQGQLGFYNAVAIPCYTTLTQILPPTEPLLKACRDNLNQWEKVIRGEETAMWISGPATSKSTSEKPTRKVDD

[8] = Half life in Sprague-Dawley rat at 10 mg/kg, po; assay type: ADME, organism-based; parameters: dose 10 mg/kg, route oral; conditions: in vivo
Rattus norvegicus [9] = experiment: Antipsychotic activity in Sprague-Dawley rat psychosis model assessed as reversal of MK-801-induced ataxia at 1 mg/kg, po administered 2 hrs prior to MK-801 challenge measured every 5 mins for 1 hr starting 15 mins post MK-801 injection relative to vehicle-treated control; assay type: functional
[10] = target: cGMP-dependent 3',5'-cyclic phosphodiesterase (Homo sapiens) (UniProt O00408); experiment: Inhibition of human recombinant PDE2A using cAMP as substrate at 1 uM after 30 mins by HTRF method
[11] = Metabolic stability in Beagle dog liver microsomes incubated for 10 mins prior to NADPH addition measured after 60 mins by LC/MS/MS analysis; assay type: ADME, Canis lupus familiaris; conditions: read-out: Stability
[12] = AUC (0 to t) in Swiss albino mouse at 10 mg/kg, po; assay type: ADME, organism-based; parameters: dose 10 mg/kg, route oral; conditions: plasma
[13] = Cmax in Swiss albino mouse at 10 mg/kg, po; assay type: ADME, organism-based; parameters: dose 10 mg/kg, route oral; conditions: in vivo
Rattus norvegicus [14] = experiment: Antipsychotic activity in Sprague-Dawley rat prepulse inhibition deficit model assessed as reversal of MK-801-induced effect at 10 mg/kg, po administered 110 mins prior to MK-801 challenge relative to vehicle-treated control; assay type: functional; parameters: scale not given: the % may be the effect or the level left
[15] = Tmax in Swiss albino mouse at 10 mg/kg, po; assay type: ADME, organism-based; parameters: dose 10 mg/kg, route oral; conditions: in vivo
[16] = target: cGMP-specific 3',5'-cyclic phosphodiesterase (Homo sapiens) (UniProt O76074); experiment: Inhibition of human recombinant PDE5A using […] as substrate at 1 uM after 30 mins by scintillation proximity assay
[17] = target: cAMP and cAMP-inhibited cGMP 3',5'-cyclic phosphodiesterase 10A (Homo sapiens, UniProt Q9Y233); experiment: Inhibition of human recombinant GST-tagged PDE10A using [3H]-cAMP as substrate after 30 mins by scintillation proximity assay
[18] = target: Dual 3',5'-cyclic-AMP and -GMP phosphodiesterase 11A (Homo sapiens) (UniProt Q9HCR9); experiment: Inhibition of human recombinant PDE11A using [3H]-cAMP as substrate at 10 uM after 30 mins by two-step radiometric assay
Rattus norvegicus [19] = experiment: Antipsychotic activity in Sprague-Dawley rat prepulse inhibition deficit model assessed as reversal of MK-801-induced effect at 3 mg/kg, po administered 110 mins prior to MK-801 challenge relative to vehicle-treated control; assay type: functional; parameters: scale not given: the % may be the effect or the level left
[20] = target: 3',5'-cyclic-AMP phosphodiesterase 4D (Homo sapiens) (UniProt Q08499); experiment: Inhibition of human recombinant PDE4D using [3H]-cAMP as substrate at 1 uM after 30 mins by two-step radiometric assay
Rattus norvegicus [21] = experiment: Antipsychotic activity in Sprague-Dawley rat psychosis model assessed as reversal of MK-801-induced locomotion at 10 mg/kg, po administered 2 hrs prior to MK-801 challenge measured every 5 mins for 1 hr starting 15 mins post MK-801 injection relative to vehicle-treated control; assay type: functional
[22] = AUC (0 to t) in Sprague-Dawley rat at 10 mg/kg, po; assay type: ADME, organism-based; parameters: dose 10 mg/kg, route oral; conditions: plasma
Rattus norvegicus [23] = experiment: Antipsychotic activity in po dosed Sprague-Dawley rat conditioned avoidance response model assessed as avoidance of shock measured after 2 hrs relative to vehicle-treated control; assay type: functional
[24] = Oral bioavailability in Swiss albino mouse at 10 mg/kg […]; assay type: ADME, organism-based; conditions: in vivo
Rattus norvegicus [25] = experiment: Antipsychotic activity in Sprague-Dawley rat conditioned avoidance response model assessed as avoidance of shock at 2.5 mg/kg, po measured after 2 hrs relative to vehicle-treated control; assay type: functional
[26] = target: cGMP-dependent 3',5'-cyclic phosphodiesterase (Homo sapiens) (UniProt O00408); experiment: Inhibition of human recombinant PDE2A using cAMP as substrate at 10 uM after 30 mins by HTRF method
[27] = Cmax in Sprague-Dawley rat at 10 mg/kg, po; assay type: ADME, organism-based; parameters: dose 10 mg/kg, route oral; conditions: in vivo
[28] = Metabolic stability in human liver microsomes incubated for 10 mins prior to NADPH addition measured after 60 mins by LC/MS/MS analysis; assay type: ADME; conditions: read-out: Stability

Chain of Dual 3',5'-cyclic-AMP and -GMP phosphodiesterase 11A (Homo sapiens) (Q9HCR9 whole entry, looked up): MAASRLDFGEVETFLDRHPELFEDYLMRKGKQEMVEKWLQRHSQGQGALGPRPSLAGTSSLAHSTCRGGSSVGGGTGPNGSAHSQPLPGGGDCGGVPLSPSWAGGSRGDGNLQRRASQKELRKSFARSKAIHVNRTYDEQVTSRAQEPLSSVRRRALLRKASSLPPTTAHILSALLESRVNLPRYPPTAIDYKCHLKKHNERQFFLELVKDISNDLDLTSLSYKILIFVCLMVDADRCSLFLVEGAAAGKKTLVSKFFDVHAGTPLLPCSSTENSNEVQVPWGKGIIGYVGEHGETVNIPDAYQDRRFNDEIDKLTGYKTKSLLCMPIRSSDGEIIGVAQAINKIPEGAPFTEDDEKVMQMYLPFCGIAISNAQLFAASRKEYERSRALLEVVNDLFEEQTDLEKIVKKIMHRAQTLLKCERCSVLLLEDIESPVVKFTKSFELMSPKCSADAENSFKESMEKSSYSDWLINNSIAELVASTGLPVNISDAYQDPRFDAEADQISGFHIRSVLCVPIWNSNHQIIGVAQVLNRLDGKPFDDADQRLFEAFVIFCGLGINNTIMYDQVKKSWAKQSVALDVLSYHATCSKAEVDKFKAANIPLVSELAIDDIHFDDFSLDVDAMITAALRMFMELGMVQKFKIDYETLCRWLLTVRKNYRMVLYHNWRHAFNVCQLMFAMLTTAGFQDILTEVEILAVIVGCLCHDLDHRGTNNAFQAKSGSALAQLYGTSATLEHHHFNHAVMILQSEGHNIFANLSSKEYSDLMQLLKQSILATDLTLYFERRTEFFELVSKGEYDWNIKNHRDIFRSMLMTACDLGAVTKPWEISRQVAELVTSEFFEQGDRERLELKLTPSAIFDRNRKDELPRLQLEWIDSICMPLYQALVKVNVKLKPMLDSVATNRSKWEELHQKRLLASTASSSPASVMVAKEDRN
Chain of cGMP-dependent 3',5'-cyclic phosphodiesterase (Homo sapiens) (O00408 whole entry): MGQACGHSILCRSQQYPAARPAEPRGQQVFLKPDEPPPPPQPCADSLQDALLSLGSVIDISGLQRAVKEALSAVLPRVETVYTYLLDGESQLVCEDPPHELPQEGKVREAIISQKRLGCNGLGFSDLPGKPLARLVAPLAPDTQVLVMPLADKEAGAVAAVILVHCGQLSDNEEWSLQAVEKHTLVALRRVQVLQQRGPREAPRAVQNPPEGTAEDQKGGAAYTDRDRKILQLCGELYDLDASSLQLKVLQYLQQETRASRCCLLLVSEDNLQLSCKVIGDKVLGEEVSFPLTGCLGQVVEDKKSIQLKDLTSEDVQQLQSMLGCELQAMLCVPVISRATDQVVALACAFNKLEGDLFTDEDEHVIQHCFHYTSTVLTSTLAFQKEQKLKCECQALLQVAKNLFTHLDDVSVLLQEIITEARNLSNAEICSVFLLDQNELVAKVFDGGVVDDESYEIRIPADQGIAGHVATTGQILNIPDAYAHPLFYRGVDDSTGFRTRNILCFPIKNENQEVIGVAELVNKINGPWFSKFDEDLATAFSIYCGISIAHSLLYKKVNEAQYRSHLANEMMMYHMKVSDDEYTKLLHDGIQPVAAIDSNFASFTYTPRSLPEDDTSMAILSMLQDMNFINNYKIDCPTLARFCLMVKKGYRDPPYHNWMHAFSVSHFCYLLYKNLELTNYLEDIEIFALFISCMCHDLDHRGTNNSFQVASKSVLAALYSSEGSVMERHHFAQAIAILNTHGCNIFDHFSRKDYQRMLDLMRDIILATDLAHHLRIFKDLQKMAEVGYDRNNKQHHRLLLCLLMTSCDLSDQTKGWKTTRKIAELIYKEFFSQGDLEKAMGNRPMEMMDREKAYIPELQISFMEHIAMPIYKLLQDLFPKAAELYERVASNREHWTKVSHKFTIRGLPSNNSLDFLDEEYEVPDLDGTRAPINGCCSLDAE
Chain of cGMP-inhibited 3',5'-cyclic phosphodiesterase 3A (Homo sapiens) (Q14432 whole entry): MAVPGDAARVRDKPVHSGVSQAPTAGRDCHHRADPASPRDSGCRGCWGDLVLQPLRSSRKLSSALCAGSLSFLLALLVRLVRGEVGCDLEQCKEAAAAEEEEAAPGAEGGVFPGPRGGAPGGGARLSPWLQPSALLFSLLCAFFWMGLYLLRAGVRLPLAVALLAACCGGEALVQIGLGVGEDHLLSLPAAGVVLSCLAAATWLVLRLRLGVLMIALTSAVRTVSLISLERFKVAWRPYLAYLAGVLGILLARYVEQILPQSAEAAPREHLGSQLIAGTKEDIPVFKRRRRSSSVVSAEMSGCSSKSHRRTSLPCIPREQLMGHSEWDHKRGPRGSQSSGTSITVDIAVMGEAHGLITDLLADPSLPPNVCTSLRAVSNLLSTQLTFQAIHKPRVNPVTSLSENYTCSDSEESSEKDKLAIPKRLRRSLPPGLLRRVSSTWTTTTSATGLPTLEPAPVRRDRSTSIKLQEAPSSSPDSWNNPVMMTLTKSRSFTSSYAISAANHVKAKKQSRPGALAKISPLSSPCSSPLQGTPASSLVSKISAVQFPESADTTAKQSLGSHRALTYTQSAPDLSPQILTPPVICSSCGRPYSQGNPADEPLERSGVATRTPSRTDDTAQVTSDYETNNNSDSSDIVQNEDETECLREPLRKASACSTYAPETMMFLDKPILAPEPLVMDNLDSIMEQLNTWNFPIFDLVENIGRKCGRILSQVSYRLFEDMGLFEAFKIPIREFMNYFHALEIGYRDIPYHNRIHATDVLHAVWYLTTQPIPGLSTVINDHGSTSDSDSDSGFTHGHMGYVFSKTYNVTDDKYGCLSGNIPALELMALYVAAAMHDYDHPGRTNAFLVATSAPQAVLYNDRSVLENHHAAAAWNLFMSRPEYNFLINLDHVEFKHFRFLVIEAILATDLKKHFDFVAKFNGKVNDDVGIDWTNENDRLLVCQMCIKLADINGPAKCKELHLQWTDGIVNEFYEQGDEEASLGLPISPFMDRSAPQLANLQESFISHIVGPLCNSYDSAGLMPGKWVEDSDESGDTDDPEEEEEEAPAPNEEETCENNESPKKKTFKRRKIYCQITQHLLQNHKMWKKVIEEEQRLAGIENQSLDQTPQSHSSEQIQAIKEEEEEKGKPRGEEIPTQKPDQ
Chain of cAMP and cAMP-inhibited cGMP 3',5'-cyclic phosphodiesterase 10A (Homo sapiens, UniProt Q9Y233) (Q9Y233 whole entry): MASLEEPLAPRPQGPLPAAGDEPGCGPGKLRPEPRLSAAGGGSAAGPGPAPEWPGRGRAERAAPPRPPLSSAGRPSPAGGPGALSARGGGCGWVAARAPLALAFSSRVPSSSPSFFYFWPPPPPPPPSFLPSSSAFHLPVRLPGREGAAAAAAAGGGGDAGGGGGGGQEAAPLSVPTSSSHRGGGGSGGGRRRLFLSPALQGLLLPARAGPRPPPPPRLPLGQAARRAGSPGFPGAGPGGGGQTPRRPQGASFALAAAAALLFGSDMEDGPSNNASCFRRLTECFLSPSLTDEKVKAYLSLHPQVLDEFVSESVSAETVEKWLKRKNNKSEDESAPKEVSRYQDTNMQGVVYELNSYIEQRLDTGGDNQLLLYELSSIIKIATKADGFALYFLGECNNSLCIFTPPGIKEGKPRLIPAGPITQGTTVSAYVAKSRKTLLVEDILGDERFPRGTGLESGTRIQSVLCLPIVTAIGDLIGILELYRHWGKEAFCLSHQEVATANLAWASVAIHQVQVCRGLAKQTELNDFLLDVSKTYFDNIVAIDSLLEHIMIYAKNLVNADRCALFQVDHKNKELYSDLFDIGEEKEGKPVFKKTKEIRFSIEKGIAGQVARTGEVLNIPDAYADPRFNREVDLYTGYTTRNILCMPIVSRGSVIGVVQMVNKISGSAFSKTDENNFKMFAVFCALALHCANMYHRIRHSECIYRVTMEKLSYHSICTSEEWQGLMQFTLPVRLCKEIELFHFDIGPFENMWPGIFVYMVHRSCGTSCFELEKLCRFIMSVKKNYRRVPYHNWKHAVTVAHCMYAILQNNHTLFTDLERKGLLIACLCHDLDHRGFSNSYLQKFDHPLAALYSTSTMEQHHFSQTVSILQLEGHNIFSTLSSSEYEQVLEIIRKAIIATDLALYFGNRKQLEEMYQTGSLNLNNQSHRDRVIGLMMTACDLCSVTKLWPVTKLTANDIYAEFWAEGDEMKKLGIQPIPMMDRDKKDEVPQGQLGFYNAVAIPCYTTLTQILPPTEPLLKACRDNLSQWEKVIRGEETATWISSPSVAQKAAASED
Chain of 3',5'-cyclic-AMP phosphodiesterase 4D (Homo sapiens) (Q08499 whole entry): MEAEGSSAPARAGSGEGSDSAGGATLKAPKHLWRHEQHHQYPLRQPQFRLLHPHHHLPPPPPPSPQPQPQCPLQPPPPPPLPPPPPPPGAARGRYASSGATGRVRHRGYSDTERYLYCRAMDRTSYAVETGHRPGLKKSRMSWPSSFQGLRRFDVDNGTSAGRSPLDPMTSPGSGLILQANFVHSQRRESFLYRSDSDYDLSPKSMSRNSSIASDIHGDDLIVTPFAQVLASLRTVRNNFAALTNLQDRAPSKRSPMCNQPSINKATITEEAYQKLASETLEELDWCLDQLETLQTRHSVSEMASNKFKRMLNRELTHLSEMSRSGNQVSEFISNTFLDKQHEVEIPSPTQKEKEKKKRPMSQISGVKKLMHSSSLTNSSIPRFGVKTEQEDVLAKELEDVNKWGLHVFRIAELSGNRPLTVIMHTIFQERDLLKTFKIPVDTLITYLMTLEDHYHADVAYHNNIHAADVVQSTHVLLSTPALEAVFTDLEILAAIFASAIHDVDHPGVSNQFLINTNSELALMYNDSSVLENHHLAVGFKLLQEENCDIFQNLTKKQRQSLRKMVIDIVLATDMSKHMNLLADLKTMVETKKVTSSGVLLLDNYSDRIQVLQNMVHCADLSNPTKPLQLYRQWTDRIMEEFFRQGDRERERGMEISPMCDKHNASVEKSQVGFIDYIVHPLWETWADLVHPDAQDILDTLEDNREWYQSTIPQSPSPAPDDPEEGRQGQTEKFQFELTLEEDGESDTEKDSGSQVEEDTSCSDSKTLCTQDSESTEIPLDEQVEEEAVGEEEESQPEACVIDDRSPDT

Question: With Cn1cc(-c2ccc(Oc3nccnc3-c3ccncc3)cc2)c2ncccc21 as the compound, how does the Activity (Rattus norvegicus [1]) read?
Answer: The Activity was “Active”.

Question: What about the inhibition [2] of the same compound?
Answer: The inhibition was 4.9%.

Question: And the Activity (Rattus norvegicus [3])?
Answer: The Activity was 95%.

Question: And the inhibition [4]?
Answer: The inhibition was 6.3%.

Question: And the Activity (Rattus norvegicus [5])?
Answer: The Activity was 43%.

Question: What about the Activity (Rattus norvegicus [6]) of the same compound?
Answer: The Activity was 90%.

Question: And the IC50 [7]?
Answer: The IC50 was 16.1 nM.

Question: And the half-life [8]?
Answer: The half-life was 4.4 h.

Question: And the Activity (Rattus norvegicus [9])?
Answer: Its Activity is 59%.

Question: And the inhibition [10]?
Answer: The inhibition was 3.3%.

Question: And the remaining at 1 h [11]?
Answer: Its remaining at 1 h is 65.8%.

Question: What about the AUC(0-t) [12] of the same compound?
Answer: Its AUC(0-t) is 31.6 µg·h/mL.

Question: And the Cmax [13]?
Answer: The Cmax was 5490 ng/mL.

Question: What about the Activity (Rattus norvegicus [14]) of the same compound?
Answer: The Activity was 88%.

Question: And the Tmax [15]?
Answer: The Tmax was 0.5 h.

Question: What about the inhibition [16] of the same compound?
Answer: The inhibition was 0.8%.

Question: And the IC50 [17]?
Answer: The IC50 was 6.3 nM.

Question: What about the inhibition [18] of the same compound?
Answer: The inhibition was 11.2%.

Question: What about the Activity (Rattus norvegicus [19]) of the same compound?
Answer: Its Activity is 64%.

Question: And the inhibition [20]?
Answer: Its inhibition is 0%.

Question: What about the Activity (Rattus norvegicus [21]) of the same compound?
Answer: Its Activity is 90%.

Question: And the AUC(0-t) [22]?
Answer: Its AUC(0-t) is 410 µg·h/mL.

Question: What about the Activity (Rattus norvegicus [23]) of the same compound?
Answer: Its Activity is “Dose-dependent effect”.

Question: What about the ED50 (Rattus norvegicus [23]) of the same compound?
Answer: The ED50 was 2.08 mg/kg.

Question: What about the bioavailability [24] of the same compound?
Answer: The bioavailability was 8%.

Question: And the Activity (Rattus norvegicus [25])?
Answer: The Activity was 64%.

Question: What about the inhibition [26] of the same compound?
Answer: The inhibition was 42.4%.

Question: And the Cmax [27]?
Answer: Its Cmax is 27600 ng/mL.

Question: What about the remaining at 1 h [28] of the same compound?
Answer: The remaining at 1 h was 77.4%.
